According to patent publication US20230302022A1, “PREVENTING OR MITIGATING CHEMOTHERAPY INDUCED ALOPECIA USING VITAMIN D” (priority 2016, published 2023):
“And” between values parts separate entries of the source, which are not always exact repeats. Identical values can stand only once.

Key:
[1] = tested on: EMT-6 murine breast tumor; details: topical pretreatment + cyclophosphamide vs either agent alone; cited from earlier work
[2] = tested on: NIH-3T3 (immortalized fibroblast); experiment: Cell growth / viability assay, NIH-3T3; format: cell-based
Method: (§1) The drug treatment period was usually three days. At the end of the three days, the background OD of the 96-well plate was read at 280 nm, before 20 μL of the “Substrate Cell Titer 96 Aqueous One Solution Reagent” (Promega) was added to each well. […] The net OD increase was calculated by subtracting the pre-substrate OD reading. The impact of the drug on the cells was calculated by comparing the OD at different concentrations in relation to the OD of the control wells (without the drug). The results of the Net OD as a function of drug concentration was plotted and used to determine ED50 values.

NCI-ES-0808 = experiment: Cell growth / viability assay, NCI-ES-0808; format: cell-based
Method: as §1

[3] = tested on: squamous cell carcinoma and human prostate cell carcinoma; details: 2.5 μg 3 doses daily for 3 days, followed by paclitaxel; cited from earlier work
[4] = tested on: Long Evans and Sprague Dawley rats; experiment: Chemotherapy-induced alopecia (CIA) in the neonatal rat, topical calcitriol formulation; format: in vivo
Method: Specifically, Long Evans and Sprague Dawley rats with pups were purchased from Harlan Laboratories, Inc. They were housed and fed according to applicable animal handling rules and regulations. Pups were allowed to acclimate for 48 hours prior to the start of experiments. […] Rats were isolated from their littermates and mother for 6-hour periods of time. Subsequently, the treated area was cleaned with soap and water and pups were returned to their litters. On day 13, rats either received etoposide (1.5 mg/kg daily for 3 days) or cyclophosphamide (CTX) (37.5 mg/kg once) or combination cyclophosphamide (35 mg/kg once) and doxorubicin (2.5 mg/kg daily for 3 days). All chemotherapies were purchased from Sigma and were given intraperitoneally (i.p.) in a total volume of 0.1 mL. Alopecia was recorded 10 days after the last dose of chemotherapy.

[5] = Phase I study: serum levels of calcitriol (PK); format: in vivo, human; design: unit not given here; details: individual patients
Method: Pharmacokinetics (all patients). For the purpose of pharmacokinetic studies (PKs), blood samples will be collected on Day 1 of topical treatment at the following time points: pre-dose, at 2 hours (+/−30 minutes), 4 hours (+/−30 minutes), and 8 hours (+/−1 hour post dose) after a single application on the morning of Day 1. The second application of drug product will be applied 10-14 hours after the initial application and after the 8 hour PK sample. Thereafter, topical application frequency will be twice daily, morning and night. Subsequently, a PK sample will be taken 12 hours (+/−2 hours) after the last dose of each 28 day treatment, before the first application of Day 1 of the next 28 day treatment cycle. This schedule will continue for three consecutive 28 day topical treatment cycles. (PKs will be drawn at weeks 1, 5, 9, and 13. In addition if patients are still on study, a PK will also be drawn at week 54.) Vital signs will be obtained approximately 5 minutes before each blood collection, and the actual collection times will be recorded.
At each collection, collect blood by venipuncture in a serum separator tube(s). Centrifuge at 1200 RCF for 10±5 minutes, and aliquot 1.5 mL of serum each into 2 labeled externally threaded cryogenic vials and immediately freeze. […] Serum samples will be transported with a sufficient amount of dry ice to keep the samples frozen until arrival.
Each patient underwent PK analysis, adverse event monitoring, patient self-assessment diaries (1-10 scale), and blinded photographic assessments. […] Toxicity was determined on a weekly basis during Cycle 1 (i.e., the first 28 days of topical agent application) and subsequently every four weeks. Patients were managed with adequate safety (adverse event) monitoring and pharmacokinetic (PK) analysis in order to determine levels of exposure.

HEKa cells = experiment: 2-D gel electrophoresis proteomic analysis of calcitriol-treated HEKa cells; format: cell-based, human; details: 0.1 μg/mL calcitriol, 3, 6, 24 hours vs control
Method: The cell pellets were then analyzed using proteomic methods, such as 2-D gel and Western blot analysis. […] In all, analysis of about 458 protein spots in the comparative study was performed, comparing the control sample against the 3-, 6-, and 24-hour treatment samples. Six spots showing statistically significant differential changes were identified. These spots were excised, and their protein contents subjected to sequence identification by trypsin digestion and mass spectrometry characterization.

[6] = Long Evans rats, 0.2 μg total dose

C=C1/C(=C\C=C2/CCC[C@]3(C)[C@@H]([C@H](C)CCCC(C)(C)O)CC[C@@H]23)C[C@@H](O)C[C@@H]1O [Calcitriol, (5Z,7E)-9,10-secocholesta-5,7.10(19Hriene-1 a,33.25-triol]
rate of tumor growth [1]: greater reduction in the rate of tumor growth
effect of calcitriol on cell growth [2]: no significant growth promoting or growth inhibiting effects
effect of calcitriol on the cytotoxic effect of Doxorubicin [2]: did not appear to appreciably alter
effect of calcitriol on cell growth (NCI-ES-0808): no significant growth promoting or growth inhibiting effects
effect of calcitriol on the cytotoxic effect of Doxorubicin (NCI-ES-0808): did not appear to appreciably alter
tumor response [3]: significant tumor regression
protection from etoposide-induced alopecia ([4]; 0.1 μg of calcitriol topically for 6 hours, daily for 6 days): partial localized protection
protection from cyclophosphamide-induced alopecia ([4]; 0.3 μg calcitriol topically): full body protection
protection from etoposide-induced alopecia ([4]; 0.3 μg calcitriol topically): total body protection
protection from CTX-doxorubicin combination chemotherapy-induced alopecia [4, 6]: protects
protection from CTX-induced alopecia in rats injected with MIAC51 [4, 6]: protects
protection from cyclophosphamide (CTX)-induced alopecia [4, 6]: protects
protection from CIA in rats receiving etoposide ([4]; Sprague Dawley rats, topical formulation, two doses): protects from chemotherapy-induced alopecia (CIA) in a dose-dependent manner
protection against CIA in neonatal rat ([4]; about 0.2 μg (100 μL of 2 μg/mL topical solution)): protective
daily application prior to commencement of chemotherapy required to see any protective effect ([4]; rat model): at least four days
protection with 5 days of application prior to chemotherapy ([4]; rat model): moderate protection
Serum Levels of Calcitriol ([5]; 5 μg/mL, Week 1, Hour 0 (pre-dose)): 43.8 and 47.9 and 55.3
Serum Levels of Calcitriol ([5]; 5 μg/mL, Week 1, Hour 2): 38.8 and 48.4 and 46.2
Serum Levels of Calcitriol ([5]; 5 μg/mL, Week 1, Hour 4): 45 and 51 and 58.7
Serum Levels of Calcitriol ([5]; 5 μg/mL, Week 1, Hour 8): 33.2 and 44.4 and 39.5
Serum Levels of Calcitriol ([5]; 5 μg/mL, Week 5, Hour 0): 57.5 and 49.6 and 61.8
Serum Levels of Calcitriol ([5]; 5 μg/mL, Week 9, Hour 0): 63.2 and 46.5
Serum Levels of Calcitriol ([5]; 5 μg/mL, Week 13, Hour 0): 56 and 54.6
Serum Levels of Calcitriol ([5]; 10 μg/mL, Week 1, Hour 0 (pre-dose)): 37.7 and 60 and 32
Serum Levels of Calcitriol ([5]; 10 μg/mL, Week 1, Hour 2): 32.9 and 59 and 33
Serum Levels of Calcitriol ([5]; 10 μg/mL, Week 1, Hour 4): 36.7 and 57 and 31
Serum Levels of Calcitriol ([5]; 10 μg/mL, Week 1, Hour 8): 50 and 28
Serum Levels of Calcitriol ([5]; 10 μg/mL, Week 5, Hour 0): 83.2 and 32 and 44
Serum Levels of Calcitriol ([5]; 10 μg/mL, Week 9, Hour 0): 41
Serum Levels of Calcitriol ([5]; 10 μg/mL, Week 13, Hour 0): 25.9
Serum Levels of Calcitriol ([5]; 20 μg/mL, Week 1, Hour 0 (pre-dose)): 110 and 33.7 and 41 and 46.8 and 40
Serum Levels of Calcitriol ([5]; 20 μg/mL, Week 1, Hour 2): 90 and 38 and 54.1 and 40
Serum Levels of Calcitriol ([5]; 20 μg/mL, Week 1, Hour 4): 85 and 22.4 and 39 and 50.1 and 41
Serum Levels of Calcitriol ([5]; 20 μg/mL, Week 1, Hour 8): 65 and 26.4 and 38 and 53.7 and 39
Serum Levels of Calcitriol ([5]; 20 μg/mL, Week 5, Hour 0): 27.3 and 98 and 56.4
Serum Levels of Calcitriol ([5]; 20 μg/mL, Week 9, Hour 0): 64.9 and 37.7
Serum Levels of Calcitriol ([5]; 40 μg/mL, Week 1, Hour 0 (pre-dose)): 44.7
Serum Levels of Calcitriol ([5]; 40 μg/mL, Week 1, Hour 2): 75.2 and 67.1
Serum Levels of Calcitriol ([5]; 40 μg/mL, Week 1, Hour 4): 56.1 and 68.4
Serum Levels of Calcitriol ([5]; 40 μg/mL, Week 1, Hour 8): 30.1 and 66.9
Serum Levels of Calcitriol ([5]; 40 μg/mL, Week 9, Hour 0): 37.3
Serum Levels of Calcitriol ([5]; 40 μg/mL, Week 13, Hour 0): 92 and 46.7
Serum Levels of Calcitriol ([5]; 60 μg/mL, Week 1, Hour 0 (pre-dose)): 29.1 and 36.4
Serum Levels of Calcitriol ([5]; 60 μg/mL, Week 1, Hour 2): 21.3 and 38.5 and 42
Serum Levels of Calcitriol ([5]; 60 μg/mL, Week 1, Hour 4): 24.7 and 41.2 and 42.9
Serum Levels of Calcitriol ([5]; 60 μg/mL, Week 1, Hour 8): 23.3 and 39.4 and 41.5
Serum Levels of Calcitriol ([5]; 60 μg/mL, Week 5, Hour 0): 65.4 and 81.6
Serum Levels of Calcitriol ([5]; 60 μg/mL, Week 9, Hour 0): 60.7 and 61.5
Serum Levels of Calcitriol ([5]; 60 μg/mL, Week 13, Hour 0): 45
Serum Levels of Calcitriol ([5]; 80 μg/mL, Week 1, Hour 0 (pre-dose)): 28.3 and 29.4 and 55.7
Serum Levels of Calcitriol ([5]; 80 μg/mL, Week 1, Hour 2): 31.8 and 35.6 and 64.8
Serum Levels of Calcitriol ([5]; 80 μg/mL, Week 1, Hour 4): 29.6 and 42.1 and 61.4
Serum Levels of Calcitriol ([5]; 80 μg/mL, Week 1, Hour 8): 36.6 and 58.9
Serum Levels of Calcitriol ([5]; 80 μg/mL, Week 5, Hour 0): 95.5
Galectin 1 (LGALS1) Response (HEKa cells): up at 6 and 24
Glutathione S-transferase (GST) Response (HEKa cells): up at 3, 6, and 24
Keratin 17 (KR17) Response (HEKa cells): down at 24 hours
S100 A9 (Calprotectin) Response (HEKa cells): down at 6 and 24
S100 A13 Response (HEKa cells): up at 6 and 24
